Measurements published in ChEMBL document CHEMBL1154056, “Synthesis, characterization, antimicrobial and antitumor screening of some diorganotin(IV) complexes of 2-[(9H-Purin-6-ylimino)]-phenol” (Eur J Med Chem, 2009).
≈ marks a conversion by molar mass, not a printed value.

Tests used:
Bacillus subtilis [1] = experiment: Antibacterial activity against Bacillus subtilis at 2 mg by agar well diffusion assay relative to imipenem; assay type: functional
Escherichia coli [2] = experiment: Antibacterial activity against Escherichia coli at 2 mg by agar well diffusion assay relative to imipenem; assay type: functional
Salmonella typhi [3] = experiment: Antibacterial activity against Salmonella typhi at 2 mg by agar well diffusion assay relative to imipenem; assay type: functional, Salmonella enterica subsp. enterica serovar Typhi
Bacillus subtilis [4] = experiment: Antibacterial activity against Bacillus subtilis; assay type: functional
Staphylococcus aureus = experiment: Antibacterial activity against Staphylococcus aureus; assay type: functional
Escherichia coli [5] = experiment: Antibacterial activity against Escherichia coli; assay type: functional
Salmonella typhi [6] = experiment: Antibacterial activity against Salmonella typhi; assay type: functional, Salmonella enterica subsp. enterica serovar Typhi; conditions: Salmonella enterica
Pseudomonas aeruginosa = experiment: Antibacterial activity against Pseudomonas aeruginosa; assay type: functional
Aspergillus flavus [7] = experiment: Antifungal activity against Aspergillus flavus at 50 mg after 72 hrs by dilution plate method; assay type: functional; conditions: read-out: IZ
Aspergillus niger = experiment: Antifungal activity against Aspergillus niger assessed as growth inhibition at 50 mg after 72 hrs dilution plate method; assay type: functional
Fusarium oxysporum = experiment: Antifungal activity against Fusarium oxysporum assessed as growth inhibition at 50 mg after 72 hrs by dilution plate method; assay type: functional
Aspergillus flavus [8] = experiment: Antifungal activity against Aspergillus flavus assessed as growth inhibition at 50 mg after 72 hrs by dilution plate method; assay type: functional

`OC1=CC=CC/C1=N\c1ncnc2[nH]cnc12` was tested, and the “inhibition (INH)” value (Bacillus subtilis [1]) was 30%, the “inhibition (INH)” value (Escherichia coli [2]) was 10% and the “inhibition (INH)” value (Salmonella typhi [3]) was 10%. For the same compound, the MIC (Bacillus subtilis [4]) was 128 µg/mL (≈ 563 µM), the MIC (Staphylococcus aureus) was 128 µg/mL (≈ 563 µM) and the MIC (Escherichia coli [5]) was 64 µg/mL (≈ 282 µM). For the same compound, the MIC (Salmonella typhi [6]) was 64 µg/mL (≈ 282 µM), the MIC (Pseudomonas aeruginosa) was 64 µg/mL (≈ 282 µM) and the zone of inhibition at 50000 µg/disc (Aspergillus flavus [7]) was 8 mm. For the same compound, the “inhibition (INH)” value (Aspergillus niger) was 8%, the “inhibition (INH)” value (Fusarium oxysporum) was 12% and the “inhibition (INH)” value (Aspergillus flavus [8]) was 10%.
